Measured values: US4201865A, “Novel prostaglandin analogues” (Gruppo Lepetit S.p.A., priority 1978, dated 1980)

Tested on: acidic gastric secretion
Assay: inhibition of the acidic gastric hypersecretion induced by histamine in dogs (gastric fistula and Haidenhain pouche)
Format: in vivo, mongrel dogs
Settings: mean of four dogs; for % inhibition of the acidic gastric secretion over the controls in the H.P.: histamine 160 μg kg^-1 h^-1, denervated Haidenhain pouche; for % inhibition of the acidic gastric secretion over the controls in the G.F.: histamine 160 μg kg^-1 h^-1, innervated gastric fistula (main stomach)
Description: In the actual practice, the gastric antisecretory properties were evaluated on the basis of their effectiveness in inhibiting the hyperacidity induced by hystamine in dogs. Hystamine, which is a potent stimulator of the acidic gastric secretion (see Bertaccini et al. Eur. Journ. Pharmacol., 28, 360, 1974), was administered intravenously by continuous infusion during the experiments.
A group of four mongrel dogs weighing approximately 20 Kg was used in each experiments.
The dogs were surgically operated in the stomachs according to the method described by Bertaccini et al. (see above), in order to provide each animal with an innervated gastric fistula (G.F.) or main stomach, and a denervated Haidenhain pouche (H.P.).
The main stomach and the Haidenhain pouche were each equipped with a cannula in order to allow the gastric juices to drain to the exterior by gravity. The two surgically prepared cavities allow to determine if the antisecretory effect has to be ascribed to a direct action of the tested compounds on the oxyntic cells ie., the cells of the gastric walls secreting acidity, (inhibition of the hyperacidity produced both by G.F. and H.P.) or if it is mediated by the autonomous nervous system (inhibition of the hyperacidity produced only by G.F.). After a period of four to five weeks which was allowed to the animals for recovery, the dogs were administered intravenously with histamine in the amount of 160 micrograms of hystamine per kg. of body weight per hour (160 μg-kg^-1 h^-1) in order to stimulate the acidic secretion both in the G.F. and in the H.P. The maximum secretory effect was reached after approximately 1 hour and the infusion of histamine was prolonged for approximately three further hours. During the whole period of infusion, the acidic output was collected every ten minutes and titrated by means of NaOH 0.1 to pH 7.0 on an automatic titrator (Radiometer, Copenhagen). The so-obtained values (mean of four dogs) were considered as the "control values". Food, but not water, was withheld 18 hours before each experiments. At the beginning, the dogs were administered with 160 μg kg^-1 h^-1 of histamine. After reaching the maximum secretory value ie., approximately after 1 hour, the compound to be tested was administered intravenously at predetermined dosages per kg. of body weight during one hour, while the infusion of histamine at the above dosage was carried on. During this period the acidic output both from the G.F. and H.P. was collected every ten minutes and titrated as described above.
By means of the so obtained values (mean of four dogs) and the corresponding "control values" ie., the values obtained by determining the acidic output for one hour after the maximum secretory effect due to histamine was reached, it was possible to establish, by obvious calculations, the percent inhibition of the acidic gastric secretion both from the G.F. and the H.P. of the tested compounds versus the controls.
Representative experiments have shown that dosages varying from about 50 to about 100 μg/kg hour practically block the gastric hyperacidity induced by histamine both in the G.F. and in the H.P. This can be seen from the following table, wherein the results obtained by testing the compound of example 2 having [α]D^20 =-77.7 (c=0.67% in CHCl3) and the compound of example 5 having [α]D^20 =-45 (c=0.46% in CHCl3) are reported: […]

[1] = 10 μg kg^-1 h^-1, intravenous during one hour
[2] = 25 μg kg^-1 h^-1, intravenous during one hour
[3] = 50 μg kg^-1 h^-1, intravenous during one hour
[4] = 100 μg kg^-1 h^-1, intravenous during one hour

Row | Compound | % inhibition of the acidic gastric secretion over the controls in the H.P. [1] [%] | % inhibition of the acidic gastric secretion over the controls in the G.F. [1] [%] | % inhibition of the acidic gastric secretion over the controls in the H.P. [2] [%] | % inhibition of the acidic gastric secretion over the controls in the G.F. [2] [%] | % inhibition of the acidic gastric secretion over the controls in the H.P. [3] [%] | % inhibition of the acidic gastric secretion over the controls in the G.F. [3] [%] | % inhibition of the acidic gastric secretion over the controls in the H.P. [4] [%] | % inhibition of the acidic gastric secretion over the controls in the G.F. [4] [%]
1 | CCCCC(OC)C(O)/C=C/[C@H]1[C@H](O)CC(=O)[C@@H]1C/C=C\CCCC(=O)OC (single isomer, unassigned) [Example 2, 11α, 15-Dihydroxy-16-methoxy-9-oxo-prosta-5(Z),13(E)-diene-1-oic-acid methyl esters] | 25 | 25 | 50 | 50 | 95 | 95 |  | 
2 | CCCCC(C)(OC)C(O)/C=C/[C@H]1[C@H](O)CC(=O)[C@@H]1C/C=C\CCCC(=O)OC (single isomer, unassigned) [Example 5, 11α,15-Dihydroxy-16-methyl-16-methoxy-9-oxo-prosta-5(Z), 13(E)-diene-1-oic acid methyl esters] | 20 | 20 |  |  | 55 | 55 | 100 | 100
